ChEMBL document CHEMBL1201862, “PubChem BioAssay data set” (2004)
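How tested: cells in 96-well plates exposed to compound for 48 hours at five concentrations. Here, GI50 denotes the concentration required for 50% inhibition of growth.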 Activity calls are given as the source filed them. No stated cut-off is given here; in the data, active = GI50 up to about 1.1 µM and inactive = higher.

What was measured:
Test in all cases: growth of human tumour cells (NCI), 48 h
PC-3 = system: PC-3
EKVX = system: EKVX
786-0 = system: 786-0
NCI-H460 = system: NCI-H460
OVCAR-4 = system: OVCAR-4
RPMI-8226 = system: RPMI-8226
LOX IMVI = system: LOX IMVI
SK-MEL-5 = system: SK-MEL-5
SK-MEL-28 = system: SK-MEL-28
SK-OV-3 = system: SK-OV-3
SNB-75 = system: SNB-75
NCI-H522 = system: NCI-H522
COLO 205 = system: COLO 205
Hs-578T = system: Hs-578T
U-251 = system: U-251
OVCAR-8 = system: OVCAR-8
SF-268 = system: SF-268
SNB-19 = system: SNB-19
NCI-H23 = system: NCI-H23
KM12 = system: KM12

Row | SMILES | GI50 (PC-3) | GI50 (EKVX) | GI50 (786-0) | GI50 (NCI-H460) | GI50 (OVCAR-4) | GI50 (RPMI-8226) | GI50 (LOX IMVI) | GI50 (SK-MEL-5) | GI50 (SK-MEL-28) | GI50 (SK-OV-3) | GI50 (SNB-75) | GI50 (NCI-H522) | GI50 (COLO 205) | GI50 (Hs-578T) | GI50 (U-251) | GI50 (OVCAR-8) | GI50 (SF-268) | GI50 (SNB-19) | GI50 (NCI-H23) | GI50 (KM12)
1 | CCN(CC)CCNc1ccc2ncn3c4ccc(O)cc4c(=O)c1c23 | 1.49 µM (inactive) | 7.28 µM (inactive) | 0.459 µM (active) | 0.0291 µM (active) | 1.28 µM (inactive) | 0.267 µM (active) | 0.327 µM (active) | 0.289 µM (active) | 7.76 µM (inactive) | 0.785 µM (active) | 0.652 µM (active) | 0.458 µM (active) | 0.769 µM (active) | 3.11 µM (inactive) | 0.193 µM (active) | 0.561 µM (active) | 0.721 µM (active) | 1.01 µM (active) | 0.194 µM (active) | 1.21 µM (inactive)
2 | CCOC(=O)C12CC(C)=C(C)CC1CCCc1ccccc12 (stereo not given) | 18.1 µM (inactive) | 21.1 µM (inactive) | 31.5 µM (inactive) | 16.4 µM (inactive) | 32.5 µM (inactive) | 12.5 µM (inactive) | 17.1 µM (inactive) | 21.5 µM (inactive) | 30.8 µM (inactive) | 32 µM (inactive) | 28.8 µM (inactive) | 17.6 µM (inactive) | 16.6 µM (inactive) | 36.1 µM (inactive) | 18.4 µM (inactive) | 28.9 µM (inactive) | 38.9 µM (inactive) | 29.6 µM (inactive) | 28.4 µM (inactive) | 29.6 µM (inactive)
3 | Nc1c(-c2cccc3ccccc23)c2ccc([N+](=O)[O-])cc2c(=O)n1-c1nc2ccccc2s1 | 4.84 µM (inactive) | 1.94 µM (inactive) | 5.64 µM (inactive) | 3.1 µM (inactive) | 9.82 µM (inactive) | 1.02 µM (active) | 4.4 µM (inactive) | 6.73 µM (inactive) | 14.1 µM (inactive) | 2.75 µM (inactive) | 0.875 µM (active) | 2.22 µM (inactive) | 18.1 µM (inactive) | 2.98 µM (inactive) | 3.71 µM (inactive) | 2.16 µM (inactive) | 3.18 µM (inactive) | 8.07 µM (inactive) | 2.11 µM (inactive) | 3.84 µM (inactive)
4 | COCN1C(=O)[C@@H]2CCCN2C(=O)c2cc(Cl)ccc21 | > 100 µM (inactive) | > 100 µM (inactive) | > 100 µM (inactive) | > 100 µM (inactive) | > 100 µM (inactive) | > 100 µM (inactive) | > 100 µM (inactive) | > 100 µM (inactive) | > 100 µM (inactive) | > 100 µM (inactive) | > 100 µM (inactive) | > 100 µM (inactive) | > 100 µM (inactive) | > 100 µM (inactive) | > 100 µM (inactive) | > 100 µM (inactive) | > 100 µM (inactive) | > 100 µM (inactive) | > 100 µM (inactive) | > 100 µM (inactive)
5 | CC(C)Cc1ccc(C(C)CC2=CCC(CN(C)C)C2=O)cc1 (stereo not given) | 14.9 µM (inactive) | 16.4 µM (inactive) | 1.79 µM (inactive) | 31.7 µM (inactive) | 20.4 µM (inactive) | 0.333 µM (active) | 4.97 µM (inactive) | 15.3 µM (inactive) | 9.31 µM (inactive) | 17.6 µM (inactive) | 15.8 µM (inactive) | 4.06 µM (inactive) | 2.69 µM (inactive) | 18.3 µM (inactive) | 6.34 µM (inactive) | 7.41 µM (inactive) | 14.9 µM (inactive) | 15.3 µM (inactive) | 12.9 µM (inactive) | 3.13 µM (inactive)
6 | COc1ccc(CN(CCc2c[nH]c3ccccc23)Cc2ccc(OC)cc2)cc1 | 3.66 µM (inactive) | 5.26 µM (inactive) | 3.08 µM (inactive) | 2.15 µM (inactive) | 3.88 µM (inactive) | 3.82 µM (inactive) | 3.15 µM (inactive) | 2.77 µM (inactive) | 3.86 µM (inactive) | 5.46 µM (inactive) | 6.25 µM (inactive) | 2.88 µM (inactive) | 2.04 µM (inactive) | 16.7 µM (inactive) | 5.81 µM (inactive) | 3.95 µM (inactive) | 4.39 µM (inactive) | 5.13 µM (inactive) | 2.31 µM (inactive) | 2.67 µM (inactive)
7 | COC(=O)c1c2c(cc3c1CC1(Cc4cc5c(cc4C1=O)CCC5)C3)CCC2 (stereo not given) | 6.68 µM (inactive) | 56.1 µM (inactive) | 35.4 µM (inactive) | 86.1 µM (inactive) | 34.3 µM (inactive) | 6.79 µM (inactive) | 7.18 µM (inactive) | 10.5 µM (inactive) | 63 µM (inactive) | 21.9 µM (inactive) | 14.3 µM (inactive) | 19.9 µM (inactive) | 79.3 µM (inactive) | 16.4 µM (inactive) | 83.9 µM (inactive) | 27.6 µM (inactive) | 85.9 µM (inactive) | > 100 µM (inactive) | 40.7 µM (inactive) | 38.7 µM (inactive)
